Data published in PMC4490394 (Scientific Reports, 2015).
“And” between values parts separate entries of the source, which are not always exact repeats. Identical values can stand only once.

How the values were obtained:
VCaP cells = test: VCaP proliferation assay (WST-1); type: cell-based; conditions: Homo sapiens, 96 h, 0.1 nM mibolerone, steroid-depleted medium, 4 days, WST-1, read-out: IC50, androgen-induced VCaP cell proliferation
Protocol: VCaP cells were treated with a submaximal concentration of mibolerone (0.1 nM) and increasing concentrations of test compounds in steroid-free assay medium supplemented with 4 mM GlutaMAX. After a 4-day incubation with the compounds, cell viability was measured using a WST-1 cell proliferation assay (Roche), according to manufacturer’s instructions.

[1] = system: DU-145 prostate cancer cells; test: Viability of AR-negative cells (WST-1); type: cell-based, human; conditions: increasing concentrations, 4 days
subcutaneous VCaP tumors = test: Castration-resistant VCaP xenograft, tumor volume; type: in vivo, castrated nude mice; conditions: 37 days
orthotopic VCaP tumors = test: Orthotopic VCaP xenograft, tumor growth; type: in vivo, nude mice; conditions: 50 mg/kg bid oral, 3 weeks, vs control group
Protocol: One million VCaP cells in 20 μL of RPMI-1640 medium were orthotopically injected into the dorsal prostate lobes of athymic nude male mice (7 weeks old from Harlan Winkelman, France). Tumor growth was followed by measuring serum PSA (ProStatus™ PSA EQM Kits, Wallac, Finland). […] At autopsy, blood samples were collected by heart puncture, clotted overnight at +4 °C, and centrifuged. For serum testosterone determination, 25-μL aliquots were extracted twice with 2 mL of diethyl ether and evaporated under nitrogen to dryness. The residues were reconstituted in PBS and measured using a standard radioimmunoassay as described previously.

[2] = Quantitative whole-body autoradiography (QWBA); type: in vivo; conditions: rat, compound and its metabolites, data not shown
[3] = Body weight of mice bearing subcutaneous VCaP xenograft tumors; type: in vivo, castrated nude mice; conditions: for Change in body weight (%) d 3 / Change in body weight (%) d 9 / Change in body weight (%) d 16 / Change in body weight (%) d 23 / Change in body weight (%) d 30 / Change in body weight (%) d 37: individual animals, vs BW before treatment, 50 mg/kg
Protocol: BALB/c nude male mice (7 weeks old from Charles River, Germany) were subcutaneously injected with 2 million VCaP cells in 100 μL of RPMI-1640 medium and Matrigel (BD) (1:1). Tumor growth was monitored twice weekly by caliper measurements. The volume of the tumor was calculated according to the formula W^2 × L/2 (mm^3), where W is the shorter and L the longer diameter of the tumor. When the average tumor volume reached ~200 mm^3, mice were castrated or SHAM-operated under Avertin anesthesia. […] For all in vivo studies, Macrocol® (Merck) + propylene glycol +5% glucose (50:30:20, v/v/v) was used as a vehicle.

AR(W741L) = molecular target: T1, AR(W741L) (Homo sapiens, UniProt P10275, W742L)
T1 sequence (P10275 1-920 W742L): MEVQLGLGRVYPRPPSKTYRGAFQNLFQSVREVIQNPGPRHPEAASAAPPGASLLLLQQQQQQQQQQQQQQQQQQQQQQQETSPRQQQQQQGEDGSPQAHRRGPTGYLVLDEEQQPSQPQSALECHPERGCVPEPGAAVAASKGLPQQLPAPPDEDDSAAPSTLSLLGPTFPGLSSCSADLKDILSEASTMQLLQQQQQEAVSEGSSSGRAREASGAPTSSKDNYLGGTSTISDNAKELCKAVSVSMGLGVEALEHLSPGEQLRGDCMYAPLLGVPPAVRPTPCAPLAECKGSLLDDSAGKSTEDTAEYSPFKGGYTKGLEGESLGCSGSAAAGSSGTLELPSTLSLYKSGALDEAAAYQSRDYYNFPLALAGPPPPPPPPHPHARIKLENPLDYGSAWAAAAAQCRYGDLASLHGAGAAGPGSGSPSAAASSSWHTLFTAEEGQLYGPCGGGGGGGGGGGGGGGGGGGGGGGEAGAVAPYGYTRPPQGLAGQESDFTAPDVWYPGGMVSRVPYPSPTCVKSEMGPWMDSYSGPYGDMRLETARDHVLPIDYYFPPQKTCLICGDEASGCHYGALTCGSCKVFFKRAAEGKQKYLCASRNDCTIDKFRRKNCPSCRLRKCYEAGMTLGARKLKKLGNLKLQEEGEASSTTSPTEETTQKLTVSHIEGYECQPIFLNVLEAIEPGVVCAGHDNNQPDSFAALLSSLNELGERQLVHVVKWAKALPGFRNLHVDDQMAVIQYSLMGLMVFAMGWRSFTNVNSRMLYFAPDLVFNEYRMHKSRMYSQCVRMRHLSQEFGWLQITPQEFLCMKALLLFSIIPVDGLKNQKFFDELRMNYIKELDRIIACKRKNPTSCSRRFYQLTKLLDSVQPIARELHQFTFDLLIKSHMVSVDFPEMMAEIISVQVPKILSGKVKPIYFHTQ
Protocol: For one well in a 96-well plate, 190 ng of reporter construct DNA and 10 ng of receptor construct DNA were diluted in Opti-MEM® (Gibco). […] Luciferase activity was measured as described above.

[4] = system: AR nuclear translocation in HS-HEK293 cells
Protocol: AR overexpressing HS-HEK293 cells immunolabeled with an AR-antibody were imaged either with a high-content screening (HCS) reader (Cellomics ArrayScan HCS VTI reader, Thermo) or with a confocal microscope (LSM780, Zeiss). HS-HEK293 cells in steroid-free assay medium were plated on poly-D-lysine coated microplates (BD) (HCS reader) or on coverslips (confocal imaging). After a 48-hour incubation, the cells were treated with 0.3 (HCS reader) or 1 μM (confocal imaging) of test compounds together with 0.3 nM testosterone for 5 hours. […] Cells were washed, DNA was labeled with DAPI (Sigma, 1 μg//mL), and images were analyzed with a NucTrans. V3 assay algorithm (Thermo). […] Coverslips were mounted with Vectashield containing DAPI (Vector Laboratories).

Q: For `CC(O)c1cc(C(=O)N[C@@H](C)Cn2ccc(-c3ccc(C#N)c(Cl)c3)n2)[nH]n1` (stereo partly drawn) [ODM-201], which IC50 (VCaP cells) is on record?
A: 230 nM

Q: What about the “effect on viability of DU-145 cells” value [1] of the same molecule?
A: no effect

Q: What about the “antitumor activity (tumor volume)” value (subcutaneous VCaP tumors; 50 mg/kg oral once daily, vs castrated untreated mice) of the same molecule?
A: significant antitumor activity

Q: What about the “antitumor activity (tumor volume)” value (subcutaneous VCaP tumors; 50 mg/kg oral twice daily, p < 0.001 vs castrated untreated mice, p = 0.0245 vs enzalutamide) of the same molecule?
A: significant antitumor activity

Q: And the “orthotopic VCaP tumor growth” value (orthotopic VCaP tumors)?
A: inhibited tumor growth significantly

Q: And the “access into the brain (QWBA)” value [2]?
A: very low access

Q: And the “body weights during the treatment” value ([3]; 50 mg/kg twice daily oral, 37 days)?
A: did not decrease significantly

Q: And the “Change in body weight (%) d 3” value ([3]; ODM-201 50 mg/kg bid oral)?
A: -0.4% and 0.0% and -2.8% and -1.9% and -1.3% and -4.9% and -2.9%

Q: What about the “Change in body weight (%) d 9” value ([3]; ODM-201 50 mg/kg bid oral) of the same molecule?
A: -2.1% and -2.5% and -9.8% and -0.9% and -0.5% and -4.5% and -6.9% and -1.9%

Q: What about the “Change in body weight (%) d 16” value ([3]; ODM-201 50 mg/kg bid oral) of the same molecule?
A: 1.7% and -4.9% and 5.6% and 3.3% and 0.4% and -4.5% and -1.0%

Q: What about the “Change in body weight (%) d 23” value ([3]; ODM-201 50 mg/kg bid oral) of the same molecule?
A: -1.7% and -6.5% and -2.8% and 0.5% and -5.4% and -11.4% and -7.2%

Q: What about the “Change in body weight (%) d 30” value ([3]; ODM-201 50 mg/kg bid oral) of the same molecule?
A: -1.3% and 0.8% and -6.1% and -3.8% and 3.8% and -3.6% and -1.6% and -3.4%

Q: And the “Change in body weight (%) d 37” value ([3]; ODM-201 50 mg/kg bid oral)?
A: 0.4% and -6.1% and -0.5% and -6.7% and -1.2% and -6.3%

Q: What about the “Change in body weight (%) d 3” value ([3]; ODM-201 50 mg/kg qd oral) of the same molecule?
A: -2.5% (2×) and -1.3% and -2.0% and -2.9% and -0.5% and -2.3% and -3.8% and -4.7% and 9.0%

Q: What about the “Change in body weight (%) d 9” value ([3]; ODM-201 50 mg/kg qd oral) of the same molecule?
A: 2.2% and -1.7% and 3.5% and 6.9% and -4.9% and 3.9% and 1.8% and -0.8% and -7.7% and 7.5%

Q: What about the “Change in body weight (%) d 16” value ([3]; ODM-201 50 mg/kg qd oral) of the same molecule?
A: -1.3% and 3.0% and 14.7% and 2.5% and -5.7% and 6.9% and 0.5% and 3.8% and 1.3% and 9.5%

Q: And the “Change in body weight (%) d 23” value ([3]; ODM-201 50 mg/kg qd oral)?
A: 6.0% and -8.2% and 4.4% and -4.9% and -1.3% and -0.5% and 0.9% and -0.4%

Q: What about the “Change in body weight (%) d 30” value ([3]; ODM-201 50 mg/kg qd oral) of the same molecule?
A: 1.5% and -3.9% and 2.5% and 8.3% and -4.1% and 2.0% and 1.8% and 0.0% and -0.4%

Q: And the “Change in body weight (%) d 37” value ([3]; ODM-201 50 mg/kg qd oral)?
A: 5.0% and -6.5% and 1.5% and 6.9% and -7.8% and 2.5% and 1.8% and -0.8% and -4.6%

Q: What about the “functional activity (agonist/antagonist) on AR(W741L)” value (AR(W741L)) of the same molecule?
A: full antagonists

Q: And the “effect on testosterone-induced nuclear translocation of AR” value [4]?
A: inhibit
